# Experimental data published in patent publication US12685312B2, “Sulfonamide apyrase inhibitors” (Texas Crop Science, Inc., priority 2022, dated 2026).
# System: apyrase
# Assay: Screen for apyrase inhibitors (Method 1, in vitro phosphate-release absorbance assay)
# Format: biochemical
# Details: inhibitor conc at 1 mM stock, 1 hr room temperature, absorbance 630 nm; rounded average of two assay results
# In short: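 Phosphate-release colorimetric assay (Windsor method) in 60 mM Hepes, 3 mM MgCl2, 3 mM CaCl2, 3 mM ATP, pH 6.5, with compound or DMSO control added. Released phosphate developed with ammonium molybdate and ascorbic acid/TCA, then stopped with citrate/acetic acid.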
row,SMILES,% Inhibition of Apyrase [%]
1,"O=C(Nc1nnc(C2CC2)s1)c1cccc(NS(=O)(=O)c2ccccc2)c1 [I-652, N-(5-cyclopropyl-1,3,4-thiadiazol-2-yl)-3-(phenylsulfonamido)benzamide]",45
2,"Cn1nc2c(c1NC(=O)c1cccc(NS(=O)(=O)c3ccc(Br)cc3)c1)CCC2 [I-653, 3-((4-bromophenyl)sulfonamido)-N-(2-methyl-2,4,5,6-tetrahydrocyclopenta[c]pyrazol-3-yl)benzamide]",44
3,"O=C(Nc1nc2ccccc2[nH]1)c1cccc(NS(=O)(=O)c2ccc3c(c2)OCCO3)c1 [I-656, N-(1H-benzo[d]imidazol-2-yl)-3-((2,3-dihydrobenzo[b][1,4]dioxine)-6-sulfonamido)benzamide]",34
4,"O=C(Nc1[nH]ncc1-c1ccccc1)c1cccc(NS(=O)(=O)c2ccc(F)c(F)c2)c1 [I-657, 3-((3,4-difluorophenyl)sulfonamido)-N-(4-phenyl-1H-pyrazol-5-yl)benzamide]",34
5,"O=C(Nc1cnccn1)c1cccc(NS(=O)(=O)c2c(F)cccc2F)c1 [I-659, 3-((2,6-difluorophenyl)sulfonamido)-N-(pyrazin-2-yl)benzamide]",31
6,"Cc1ccnc(NC(=O)c2cccc(NS(=O)(=O)c3ccc4c(c3)OCCCO4)c2)c1 [I-663, 3-((3,4-dihydro-2H-benzo[b][1,4]dioxepine)-7-sulfonamido)-N-(4-methylpyridin-2-yl)benzamide]",25
7,"O=C(Nc1ccc(Br)cn1)c1cccc(NS(=O)(=O)c2ccc(F)c(Cl)c2)c1 [I-666, N-(5-bromopyridin-2-yl)-3-((3-chloro-4-fluorophenyl)sulfonamido)benzamide]",21
8,"O=C(Nc1cnccn1)c1cccc(NS(=O)(=O)c2ccccc2)c1 [I-670, 3-(phenylsulfonamido)-N-(pyrazin-2-yl)benzamide]",6
9,"CCOc1ccc(S(=O)(=O)Nc2cccc(C(=O)Nc3nnc[nH]3)c2)cc1 [I-671, 3-((4-ethoxyphenyl)sulfonamido)-N-(4H-1,2,4-triazol-3-yl)benzamide]",2
10,"O=C(Nc1nnc[nH]1)c1cccc(NS(=O)(=O)c2ccc(Br)cc2)c1 [I-672, 3-((4-bromophenyl)sulfonamido)-N-(4H-1,2,4-triazol-3-yl)benzamide]",1
11,"O=C(Nc1cccc(S(=O)(=O)Nc2ccc(Br)cc2)c1)c1ccc([N+](=O)[O-])s1 [I-702, N-(3-(N-(4-bromophenyl)sulfamoyl)phenyl)-5-nitrothiophene-2-carboxamide]",73
12,"O=C(Nc1cccc(S(=O)(=O)Nc2ccc(Br)cc2)c1)c1ccc(Cl)nc1 [I-703, N-(3-(N-(4-bromophenyl)sulfamoyl)phenyl)-6-chloronicotinamide]",71
13,"CN(c1ccccc1)S(=O)(=O)c1cccc(NC(=O)c2cc3cc(F)ccc3[nH]2)c1 [I-704, 5-fluoro-N-(3-(N-methyl-N-phenylsulfamoyl)phenyl)-1H-indole-2-carboxamide]",65
14,"Cc1cc(C(=O)Nc2cccc(S(=O)(=O)Nc3ccccc3F)c2)c(C)n1C1CC1 [I-705, 1-cyclopropyl-N-(3-(N-(2-fluorophenyl)sulfamoyl)phenyl)-2,5-dimethyl-1H-pyrrole-3-carboxamide]",64
15,"CN(c1ccccc1)S(=O)(=O)c1cccc(NC(=O)c2ccc(Br)s2)c1 [I-706, 5-bromo-N-(3-(N-methyl-N-phenylsulfamoyl)phenyl)thiophene-2-carboxamide]",62
16,"COc1ccccc1NS(=O)(=O)c1cccc(NC(=O)c2c[nH]c3ccccc23)c1 [I-707, N-(3-(N-(2-methoxyphenyl)sulfamoyl)phenyl)-1H-indole-3-carboxamide]",62
17,"Cc1cccc(C(=O)Nc2cccc(S(=O)(=O)Nc3cccc(C(F)(F)F)c3)c2)n1 [I-708, 6-methyl-N-(3-(N-(3-(trifluoromethyl)phenyl)sulfamoyl)phenyl) picolinamide]",61
18,"O=C(Nc1cccc(S(=O)(=O)Nc2ccc(Cl)cc2)c1)c1cc2c(s1)CCCC2 [I-709, N-(3-(N-(4-chlorophenyl)sulfamoyl)phenyl)-4,5,6,7-tetrahydrobenzo[b]thiophene-2-carboxamide]",61
19,"CN(c1ccccc1)S(=O)(=O)c1cccc(NC(=O)c2cccs2)c1 [I-710, N-(3-(N-methyl-N-phenylsulfamoyl)phenyl)thiophene-2-carboxamide]",60
20,"CCOc1ncccc1C(=O)Nc1cccc(S(=O)(=O)N(C)c2ccccc2)c1 [I-711, 2-ethoxy-N-(3-(N-methyl-N-phenylsulfamoyl)phenyl)nicotinamide]",60
21,"O=C(Nc1cccc(S(=O)(=O)Nc2ccc(Cl)cc2)c1)c1ccoc1 [I-712, N-(3-(N-(4-chlorophenyl)sulfamoyl)phenyl)furan-3-carboxamide]",59
22,"Cc1cc(C(=O)Nc2cccc(S(=O)(=O)Nc3ccccc3Cl)c2)sc1C [I-713, N-(3-(N-(2-chlorophenyl)sulfamoyl)phenyl)-4,5-dimethylthiophene-2-carboxamide]",58
23,"O=C(Nc1cccc(S(=O)(=O)Nc2cccc(C(F)(F)F)c2)c1)c1cc2ccccc2o1 [I-715, N-(3-(N-(3-(trifluoromethyl)phenyl)sulfamoyl)phenyl) benzofuran-2-carboxamide]",58
24,"CN(c1ccccc1)S(=O)(=O)c1cccc(NC(=O)c2ccsc2)c1 [I-716, N-(3-(N-methyl-N-phenylsulfamoyl)phenyl)thiophene-3-carboxamide]",58
25,"CN(c1ccccc1)S(=O)(=O)c1cccc(NC(=O)c2cncc(Br)c2)c1 [I-720, 5-bromo-N-(3-(N-methyl-N-phenylsulfamoyl)phenyl)nicotinamide]",58
26,"COC(=O)c1c(C)[nH]c(C(=O)Nc2cccc(S(=O)(=O)Nc3cccc(C(F)(F)F)c3)c2)c1C [I-721, methyl 2,4-dimethyl-5-((3-(N-(3-(trifluoromethyl)phenyl)sulfamoyl)phenyl)carbamoyl)-1H-pyrrole-3-carboxylate]",57
27,"CN(c1ccccc1)S(=O)(=O)c1cccc(NC(=O)c2ccc(Br)o2)c1 [I-722, 5-bromo-N-(3-(N-methyl-N-phenylsulfamoyl)phenyl)furan-2-carboxamide]",57
28,"O=C(Nc1cccc(S(=O)(=O)Nc2ccc(I)cc2)c1)c1ccccn1 [I-723, N-(3-(N-(4-iodophenyl)sulfamoyl)phenyl)picolinamide]",57

# Other lines, results leading:
row,% Inhibition of Apyrase [%],SMILES
1,50,"Cc1ccnc(NC(=O)c2cccc(NS(=O)(=O)c3ccc(C)c(F)c3)c2)c1 [I-651, 3-((3-fluoro-4-methylphenyl)sulfonamido)-N-(4-methylpyridin-2-yl)benzamide]"
2,42,"COc1ccc(NC(=O)c2cccc(NS(=O)(=O)c3cc(Cl)ccc3Cl)c2)cn1 [I-654, 3-((2,5-dichlorophenyl)sulfonamido)-N-(6-methoxypyridin-3-yl)benzamide]"
3,35,"Cc1ccc(NC(=O)c2cccc(NS(=O)(=O)c3ccc(C)c(F)c3)c2)nc1 [I-655, 3-((3-fluoro-4-methylphenyl)sulfonamido)-N-(5-methylpyridin-2-yl)benzamide]"
4,32,"O=C(Nc1ccccc1)c1cccc(NS(=O)(=O)c2cccs2)c1 [I-658, N-phenyl-3-(thiophene-2-sulfonamido)benzamide]"
5,29,"O=C(Nc1nccs1)c1cccc(NS(=O)(=O)c2ccc3c(c2)OCCO3)c1 [I-660, 3-((2,3-dihydrobenzo[b][1,4]dioxine)-6-sulfonamido)-N-(thiazol-2-yl)benzamide]"
6,26,"O=C(Nc1nccs1)c1cccc(NS(=O)(=O)c2ccc(Br)cc2)c1 [I-661, 3-((4-bromophenyl)sulfonamido)-N-(thiazol-2-yl)benzamide]"
7,26,"Cc1ccc(NC(=O)c2cccc(NS(=O)(=O)c3cccs3)c2)c(C)c1 [I-662, N-(2,4-dimethylphenyl)-3-(thiophene-2-sulfonamido)benzamide]"
8,24,"Cc1nc2cc(NC(=O)c3cccc(NS(=O)(=O)c4cccs4)c3)ccc2o1 [I-664, N-(2-methylbenzo[d]oxazol-5-yl)-3-(thiophene-2-sulfonamido)benzamide]"
9,22,"O=C(Nc1ccccc1Cl)c1cccc(NS(=O)(=O)c2cccs2)c1 [I-665, N-(2-chlorophenyl)-3-(thiophene-2-sulfonamido)benzamide]"
10,12,"Cc1csc(NC(=O)c2cccc(NS(=O)(=O)c3ccccc3)c2)n1 [I-667, N-(4-methylthiazol-2-yl)-3-(phenylsulfonamido)benzamide]"
11,10,"O=C(Nc1cnccc1O)c1cccc(NS(=O)(=O)c2ccc(Cl)c(Cl)c2)c1 [I-668, 3-((3,4-dichlorophenyl)sulfonamido)-N-(4-hydroxypyridin-3-yl)benzamide]"
12,7,"Cc1ccc(C)c(S(=O)(=O)Nc2cccc(C(=O)Nc3cnccn3)c2)c1 [I-669, 3-((2,5-dimethylphenyl)sulfonamido)-N-(pyrazin-2-yl)benzamide]"
13,79,"O=C(Nc1cccc(S(=O)(=O)Nc2ccc(Br)cc2)c1)c1ccsc1 [I-701, N-(3-(N-(4-bromophenyl)sulfamoyl)phenyl)thiophene-3-carboxamide]"
14,58,"COc1ccc(NS(=O)(=O)c2cccc(NC(=O)c3ccc(Cl)nc3)c2)cc1 [I-714, 6-chloro-N-(3-(N-(4-methoxyphenyl)sulfamoyl)phenyl) nicotinamide]"
15,58,"O=C(Nc1cccc(S(=O)(=O)Nc2ccc(Cl)cc2)c1)c1ccsc1 [I-717, N-(3-(N-(4-chlorophenyl)sulfamoyl)phenyl)thiophene-3-carboxamide]"
16,58,"O=C(Nc1cccc(S(=O)(=O)Nc2cccc(C(F)(F)F)c2)c1)c1ccsc1 [I-718, N-(3-(N-(3-(trifluoromethyl)phenyl)sulfamoyl)phenyl) thiophene-3-carboxamide]"
